Measurements published in article PMC6680314, “Characterization of the recombinant Brettanomyces anomalus β‐glucosidase and its potential for bioflavouring” (Journal of Applied Microbiology, 2016).

Assays:
[1] = system: T1, B. anomalus β-glucosidase (YV396 β-glucosidase); assay: glucose release, GOD-PAP assay at […] nm, Michaelis-Menten fit; format: biochemical, Brettanomyces anomalus; conditions: McIlvaine buffer pH 5.75, 37 °C (optimum of this enzyme); free enzyme; read-out: pH 5.75 37°C / K M
T1 construct: gene GH3 beta-glucosidase; full gene (2523 bp incl. stop, about 840 residues), codon optimised, pET28-YV396-His6, tag kept, E. coli BL21(DE3), Ni-Sepharose and Superdex 200

almond β-glucosidase = system: T2, almond β-glucosidase; assay: as above; format: biochemical, Prunus dulcis; conditions: McIlvaine buffer pH 5.75, 37 °C; commercial preparation; read-out: pH 5.75 37°C / K M
T2 construct: gene GH1 beta-glucosidase

Row | Km [1] [mM] | Km (almond β-glucosidase) [mM] | Compound
1 | 15.1 ± 0.73 | 0.34 ± 0.08 | OC[C@H]1O[C@@H](O[C@H]2[C@H](O)[C@@H](O)C(O)O[C@@H]2CO)[C@H](O)[C@@H](O)[C@@H]1O (stereo partly drawn) [cellobiose]
2 | 1.01 ± 0.18 | 19.6 ± 2.06 | OCc1ccccc1O[C@@H]1O[C@H](CO)[C@@H](O)[C@H](O)[C@H]1O [salicin]

Row | Compound | Km [1] [mM] | Km (almond β-glucosidase) [mM]
3 | N#C[C@H](O[C@@H]1O[C@H](CO[C@@H]2O[C@H](CO)[C@@H](O)[C@H](O)[C@H]2O)[C@@H](O)[C@H](O)[C@H]1O)c1ccccc1 [amygdalin] | 1 ± 0.05 | 10.1 ± 0.13
